Source: patent publication US20040171566A1, “Antisense modulation of p38 mitogen activated protein kinase expression” (priority 1999, published 2004)
In the oligonucleotide strings, read from the 5' end, every base follows the letter of its sugar. An asterisk marks phosphorothioate; unmarked linkages are phosphodiester. Other units and linkages are bracketed, terminal groups are in braces. A string of capitals states the bases alone. e = 2'-O-(2-methoxyethyl) (MOE); [5mC] = 5-methylcytosine; d = 2'-deoxy (DNA)

Key:
human p38α mRNA = assay: Human p38α mRNA expression in T-24 cells; conditions: for % P38α mRNA EXPRESSION: initial screen of human p38α oligonucleotides
human p38β mRNA [1] = assay: Human p38β mRNA expression in T-24 cells; conditions: for % P38β mRNA EXPRESSION: initial screen of human p38α oligonucleotides
mouse p38α mRNA = assay: Mouse p38α mRNA levels in bEND.3 cells, quantitative real-time PCR; type: cell-based; design: % Inhib. mouse p38α: concentration or dose not given beside the values; conditions: bEND.3 cells, mRNA by quantitative real-time PCR, average of two experiments
Method in brief: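 Mouse bEND.3 cells, antisense oligonucleotide-treated; p38α mRNA measured by one-step real-time RT-PCR (RT 30 min at 48 °C, then 40 cycles) with a FAM/TAMRA probe. Levels normalized to GAPDH or RiboGreen total RNA, and percent inhibition derived from standard curves of untreated-control mRNA.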

rat p38α mRNA = assay: Rat p38α mRNA levels in NR-8383 cells, quantitative real-time PCR; type: cell-based; conditions: 300 nM oligonucleotide with FuGENE 6, 24 hours, mRNA by quantitative real-time PCR, average of two experiments
human p38β mRNA [2] = assay: Inhibition of human p38β mRNA expression in HUVEC cells, Northern blot; type: cell-based
Description: The human Jurkat T-cell line (American Type Culture Collection, Manassas, Va.) was maintained in RPMI 1640 growth media supplemented with 10% fetal bovine serum (FBS; Hyclone, Logan, Utah). HUVEC cells (Clonetics, San Diego, Calif.) were cultivated in endothelial basal media supplemented with 10% FBS (Hyclone, Logan, Utah).
HUVEC cells were allowed to reach 75% confluency prior to use. The cells were washed twice with warm (37° C.) OPTI-MEM™ (Life Technologies). The cells were incubated in the presence of the appropriate culture medium, without the growth factors added, and the oligonucleotide formulated in LIPOFECTIN7 (Life Technologies), a 1:1 (w/w) liposome formulation of the cationic lipid N-[1-(2,3-dioleyloxy)propyl]-n,n,n-trimethylammonium chloride (DOTMA), and dioleoyl phosphotidylethanolamine (DOPE) in membrane filtered water. HUVEC cells were treated with 100 nM oligonucleotide in 10 μg/ml LIPOFECTIN7. Treatment was for four hours.
Total mRNA was isolated using the RNEASY7 Mini Kit (Qiagen, Valencia, Calif.; similar kits from other manufacturers may also be used), separated on a 1% agarose gel, transferred to HYBOND™-N+ membrane (Amersham Pharmacia Biotech, Piscataway, N.J.), a positively charged nylon membrane, and probed. p38 MAPK probes were made using the Prime-A-Gene7 kit (Promega Corporation, Madison, Wis.), a random primer labeling kit, using mouse p38α or p38β cDNA as a template. A glyceraldehyde 3-phosphate dehydrogenase (G3PDH) probe was purchased from Clontech (Palo Alto, Calif.), Catalog Number 9805-1. The fragments were purified from low-melting temperature agarose, as described in Maniatis, T., et al., Molecular Cloning: A Laboratory Manual, 1989. The G3PDH probe was labeled with REDIVUE™ ^32P-dCTP (Amersham Pharmacia Biotech, Piscataway, N.J.) and Strip-EZ labelling kit (Ambion, Austin, Tex.). mRNA was quantitated by a PhosphoImager (Molecular Dynamics, Sunnyvale, Calif.).
Every oligonucleotide tested gave at least 50% inhibition.
Oligonucleotides 17893 (SEQ ID NO. 27), 17899 (SEQ ID NO:33), 17904 (SEQ ID NO. 38), and 17907 (SEQ ID NO. 41) were chosen for dose response studies. HUVEC cells were cultured and treated as described in Example 2 except that the oligonucleotide concentration was varied as shown in Table 6. The Lipofectin7/Oligo ratio was maintained at 3 μg Lipofectin7/100 nM oligo, per ml. mRNA was measured by Northern blot as described in Example 2.

[3] = initial screen of human p38β oligonucleotides
[4] = dose 50 nM, relative to control oligonucleotide = 100%
[5] = dose 100 nM, relative to control oligonucleotide = 100%
[6] = dose 200 nM, relative to control oligonucleotide = 100%
[7] = 100 nM oligonucleotide in 10 μg/ml LIPOFECTIN, four hours, Northern blot

Row | Sequence | % p38α mRNA EXPRESSION (human p38α mRNA; [3]) | % p38β mRNA Expression (human p38β mRNA [1]; [3]) | % P38α mRNA EXPRESSION (human p38α mRNA) | % P38β mRNA EXPRESSION (human p38β mRNA [1]) | other results
1 | TACCAGCGCGTGGCCACATA (antisense eTeAe[5mC]e[5mC]eA*dG*d[5mC]*dG*d[5mC]*dG*dT*dG*dG*d[5mC]*d[5mC]*eAe[5mC]eAeTeA) [ISIS 107875] | 112% | 92% | – | – | % p38β mRNA Expression (human p38β mRNA [1]; [4]): 82%; % p38β mRNA Expression (human p38β mRNA [1]; [5]): 38%; % p38β mRNA Expression (human p38β mRNA [1]; [6]): 40%
2 | AGGTGCTCAGGACTCCATCT (chimeric deoxy gapped, phosphorothioate, further chemistry not given here) [ISIS 100876] | – | – | 77% | 93% | –
3 | TGTAAGCTTCTGACATTTCA (phosphorothioate gapmer, further chemistry not given here) [ISIS 100865] | – | – | 64% | 63% | –
4 | CTGAGACATTTTCCAGCGGC (phosphorothioate gapmer, further chemistry not given here) [ISIS 100860] | – | – | 73% | 71% | –
5 | CTCACAGTCTTCATTCACAG (chimeric deoxy gapped, phosphorothioate, further chemistry not given here) [ISIS 100867] | – | – | 58% | 33% | –
6 | TGAATGTATATACTTTAGAC (eT*eG*eA*eA*eT*dG*dT*dA*dT*dA*dT*dA*d[5mC]*dT*dT*eT*eA*eG*eA*e[5mC]; antisense) [ISIS 100866] | – | – | 55% | 65% | –
7 | CACGTAGCCTGTCATTTCAT (chimeric deoxy gapped, phosphorothioate, further chemistry not given here) [ISIS 100868] | – | – | 47% | 60% | –
8 | CATCCCACTGACCAAATATC (chimeric deoxy gapped, phosphorothioate, further chemistry not given here) [ISIS 100869] | – | – | 61% | 100% | –
9 | AGCTTCTTCACTGCCACACG (phosphorothioate gapmer, further chemistry not given here) [ISIS 100862] | – | – | 56% | 45% | –
10 | AGTCAAAGACTGAATATAGT (eA*eG*eT*e[5mC]*eA*dA*dA*dG*dA*d[5mC]*dT*dG*dA*dA*dT*eA*eT*eA*eG*eT; antisense) [ISIS 100871] | – | – | 57% | 96% | –
11 | TTCTCTTATCTGAGTCCAAT (chimeric deoxy gapped, phosphorothioate, further chemistry not given here) [ISIS 100872] | – | – | 37% | 77% | % p38α mRNA EXPRESSION (human p38α mRNA; dose 50 nM): 45%; % p38α mRNA EXPRESSION (human p38α mRNA; dose 100 nM): 18%; % p38α mRNA EXPRESSION (human p38α mRNA; dose 200 nM): 17%
12 | CAGTTGAGCATGATCTCAGG (antisense e[5mC]eAeGeTeT*dG*dA*dG*d[5mC]*dA*dT*dG*dA*dT*d[5mC]*eTe[5mC]eAeGeG) [ISIS 107876] | 137% | 127% | – | – | –
13 | TCAAAGGACTGATCATAAGG (eT*e[5mC]*eA*eA*eA*dG*dG*dA*d[5mC]*dT*dG*dA*dT*d[5mC]*dA*eT*eA*eA*eG*eG; antisense) [ISIS 100874] | – | – | 42% | 76% | % p38α mRNA EXPRESSION (human p38α mRNA; dose 50 nM): 47%; % p38α mRNA EXPRESSION (human p38α mRNA; dose 100 nM): 27%; % p38α mRNA EXPRESSION (human p38α mRNA; dose 200 nM): 13%
14 | GTACGTTCTGCGCGCGTGGA (antisense eGeTeAe[5mC]eG*dT*dT*d[5mC]*dT*dG*d[5mC]*dG*d[5mC]*dG*d[5mC]*eGeTeGeGeA) [ISIS 107871] | 111% | 60% | – | – | % p38β mRNA Expression (human p38β mRNA [1]; [4]): 41%; % p38β mRNA Expression (human p38β mRNA [1]; [5]): 42%; % p38β mRNA Expression (human p38β mRNA [1]; [6]): 10%
15 | ACGCTCGGGCACCTCCCAGA (phosphorothioate gapmer, further chemistry not given here) [ISIS 100861] | – | – | 60% | 47% | –
16 | CATCATCAGGATCGTGGTAC (chimeric deoxy gapped, phosphorothioate, further chemistry not given here) [ISIS 100873] | – | – | 34% | 70% | % p38α mRNA EXPRESSION (human p38α mRNA; dose 50 nM): 19%; % p38α mRNA EXPRESSION (human p38α mRNA; dose 100 nM): 12%; % p38α mRNA EXPRESSION (human p38α mRNA; dose 200 nM): 8%
17 | ACAGACGGAGCCGTAGGCGC (antisense eAe[5mC]eAeGeA*d[5mC]*dG*dG*dA*dG*d[5mC]*d[5mC]*dG*dT*dA*eGeGe[5mC]eGe[5mC]) [ISIS 107869] | 93% | 60% | – | – | –
18 | TCCAACAGACCAATCACATT (phosphorothioate gapmer, further chemistry not given here) [ISIS 100864] | – | – | 66% | 70% | % Inhib. mouse p38α (mouse p38α mRNA): 83%; % Inhib. rat p38α (rat p38α mRNA): 57%
19 | ATCCTGAGCTCACAGTCCTC (chimeric, phosphorothioate, further chemistry not given here) [ISIS 17899] | 117% | 56% | – | – | % mRNA EXPRESSION (human p38β mRNA [2]; [7]): 5%; % mRNA Inhibition (human p38β mRNA [2]; [7]): 95%; % mRNA EXPRESSION (human p38β mRNA [2]; dose 10 nM): 37%; % mRNA Inhibition (human p38β mRNA [2]; dose 10 nM): 63%; % mRNA EXPRESSION (human p38β mRNA [2]; dose 25 nM): 23%; % mRNA Inhibition (human p38β mRNA [2]; dose 25 nM): 77%; % mRNA EXPRESSION (human p38β mRNA [2]; dose 50 nM): 18%; % mRNA Inhibition (human p38β mRNA [2]; dose 50 nM): 82%; % mRNA EXPRESSION (human p38β mRNA [2]; dose 100 nM): 21%; % mRNA Inhibition (human p38β mRNA [2]; dose 100 nM): 79%; % p38β mRNA Expression (human p38β mRNA [1]; [4]): 89%; % p38β mRNA Expression (human p38β mRNA [1]; [5]): 36%; % p38β mRNA Expression (human p38β mRNA [1]; [6]): 15%
20 | AATGATGGACTGAAATGGTC (eA*eA*eT*eG*eA*dT*dG*dG*dA*d[5mC]*dT*dG*dA*dA*dA*eT*eG*eG*eT*e[5mC]; antisense) [ISIS 100863] | – | – | 49% | 67% | –
21 | CACCGCCACCTTCTGGCGCA (antisense e[5mC]eAe[5mC]e[5mC]eG*d[5mC]*d[5mC]*dA*d[5mC]*d[5mC]*dT*dT*d[5mC]*dT*dG*eGe[5mC]eGe[5mC]eA) [ISIS 107870] | 97% | 74% | – | – | –
22 | GGCACAAAGCTGATGACTTC (chimeric deoxy gapped, phosphorothioate, further chemistry not given here) [ISIS 100875] | – | – | 39% | 90% | % p38α mRNA EXPRESSION (human p38α mRNA; dose 50 nM): 30%; % p38α mRNA EXPRESSION (human p38α mRNA; dose 100 nM): 13%; % p38α mRNA EXPRESSION (human p38α mRNA; dose 200 nM): 8%
23 | ACGTTGCTGGGCTTCAGGTC (antisense eAe[5mC]eGeTeT*dG*d[5mC]*dT*dG*dG*dG*d[5mC]*dT*dT*d[5mC]*eAeGeGeTe[5mC]) [ISIS 107874] | 100% | 61% | – | – | % p38β mRNA Expression (human p38β mRNA [1]; [4]): 75%; % p38β mRNA Expression (human p38β mRNA [1]; [5]): 34%; % p38β mRNA Expression (human p38β mRNA [1]; [6]): 23%
24 | TGCCCTGGAGCAGCTCAGCC (antisense eTeGe[5mC]e[5mC]e[5mC]*dT*dG*dG*dA*dG*d[5mC]*dA*dG*d[5mC]*dT*e[5mC]eAeGe[5mC]e[5mC]) [ISIS 107878] | 112% | 54% | – | – | % p38β mRNA Expression (human p38β mRNA [1]; [4]): 70%; % p38β mRNA Expression (human p38β mRNA [1]; [5]): 43%; % p38β mRNA Expression (human p38β mRNA [1]; [6]): 27%
